Drawing on patent EP4748844A1, “AZETIDINE COMPOUND AND MEDICAL USE THEREOF” (SHANGHAI INSTITUTE OF MATERIA MEDICA, CHINESE ACADEMY OF …, priority 2023, dated 2025), this text covers IC50 for 24 molecules.

In general, IC50 refers to the concentration needed to halve the response being measured.

Common to all, as to type: cell-based
The subject of test [1] is ISG gene expression induced by MSA-2 in human THP1-Blue-ISG cells. Put plainly: Inhibition of MSA-2-induced ISG gene expression in human THP1-Blue-ISG cells (Quanti-Blue, OD650). The note with it: STING agonist MSA-2 10 µM, incubated for 24 hours. How it is done: (§1) 10 µL of compound diluted with PBS/physiological saline was added to each well of a 96 well cell culture plate. The STING agonist was MSA-2, which was added to the counted cell suspension at a final concentration of 10 µM. For the control group without compounds, 10 µL of PBS/physiological saline containing 2% DMSO was added. 3 replicate wells were set in each group. THP1-Blue-ISG cells were counted and adjusted to a cell concentration of 4× 10^5/mL, and 190 µL of cells containing STING agonist were added to each well for incubation. Therefore, the final volume of each test well was 200 µL, the content of DMSO was 0.1%, and the final concentration of the compound tested was 10/3.3/1.1/0.4/0.13/0.04/0.013/0.004 µM, incubated for 24 hours. In addition, 190 µL of cells without STING agonist and 10 µL of physiological saline containing 2% DMSO were added to the blank group. 3 replicate wells were set in each group.
After 24 hours, 20 µL of culture medium was taken from each well and transferred to a new 96 well plate. 180 µL of chromogenic solution Quanti-Blue was added. The plate was placed in a 37 °C incubator. After 2 hours, the OD650 values were measured.
Result analysis: Inhibition rate (%) = (Con(OD650)−Treated(OD650))/Con(OD650) × 100% [formula]
(§2) The IC50 calculation of inhibitors was implemented using the Graphpad Prism 8 software's calculation method log (inhibitor) vs. response - Variable slope (four parameters), with a constrain interval of 0-100.

Test [2] concerns DMXAA induced ISG gene expression in mouse RAW-Lucia cells. Put plainly: Inhibition of DMXAA-induced ISG gene expression in mouse RAW-Lucia cells (QUANTI-Luc). The note with it: STING agonist DMXAA 50 µM, incubated for 24 hours. How it is done:
10 µL of compound diluted with PBS/physiological saline was added to each well of a 96 well cell culture plate. The STING agonist was DMXAA, which was added to the counted cell suspension at a final concentration of 50 µM. For the control group without compounds, 10 µL of PBS/physiological saline containing 2% DMSO was added. 3 replicate wells were set in each group. RAW-Lucia cells were counted and adjusted to a cell concentration of 4×10^5/mL, and […] of cells were added to each well for incubation. Therefore, the final volume of each test well was 200 µL, the content of DMSO was 0.1%, and the final concentration of the compound tested was 10/3.3/1.1/0.4/0.13/0.04/0.013/0.004 µM. The final concentration of STING agonist DMXAA was 50 µM. The mixture was incubated for 24 hours. In addition, 200 µL of culture medium was added to the blank group. 3 replicate wells were set in each group.
After 24 hours, 20 µL of culture medium was taken from each well and transferred to a new 96 well plate with photopermeable bottom. 50 µL of the luciferase detection reagent QUANTI-Luc™ was added, and the […] was immediately measured (avoid light).
Result analysis: Inhibition rate (%) = (Con(Lum)−Treated(Lum))/Con(Lum) × 100% [formula]
as §2

Test [3] concerns ISG gene expression induced by MSA-2 in human THP1-Dual cells. The experiment in a line: Inhibition of MSA-2-induced ISG gene expression in human THP1-Dual cells (QUANTI-Luc). The note with it: STING agonist MSA-2 10 µM, incubated for 24 hours. As to the method: as §1, with “THP1-Dual” for “THP1-Blue-ISG”, “4×10^5/mL,” for “4× 10^5/mL,”
After 24 hours, 20 µL of culture medium for THP1-Dual cells was taken from each well and transferred to a new 96 well plate with photopermeable bottom. 50 µL of the luciferase detection reagent QUANTI-Luc™ was added, and the […] was immediately measured (avoid light). Result analysis:Inhibition rate (%) = (Con(Lum)−Treated(Lum))/Con(Lum) × 100% [formula]
as §2

On to `O=C(Nc1c[nH]c2ccccc12)c1ccc2c(c1)N(Cc1ccco1)C(=O)CS2` [Example I-60, 4-(furan-2-ylmethyl)-N-(1H-indol-3-yl)-3-oxo-3,4-dihydro-2H-benzo[b][1,4]thiazin-6-carboxamide], for which, in test [1], the IC50 was 42 nM. That is a double-digit nanomolar value. Same read-out and setting: then `O=C(Nc1c[nH]c2ccccc12)c1ccc2c(c1)N(CC1CN(c3cc(F)cc(C(F)(F)F)c3)C1)C(=O)CS2` [Example I-9, 4-((1-(3-fluoro-5-trifluoromethylphenyl)azetidin-3-yl)methyl)-N-(1H-indol-3-yl)-3-oxo-3,4-dihydro-2H-benzo[b][1,4]thiazin-6-carboxamide], with 249 nM. In test [1], `O=C(Nc1c[nH]c2ccccc12)c1ccc2c(c1)SCC(=O)N2Cc1ccc2c(c1)OCO2` [Example I-66, 4-(benzo[d][1,3]dioxolan-5-ylmethyl)-N-(1H-indol-3-yl)-3-oxo-3,4-dihydro-2H-benzo[b][1,4]thiazin-7-carboxamide] had an IC50 of 73 nM. On the same count and under the same terms, then `O=C(Nc1c[nH]c2ccccc12)c1ccc2c(c1)SCC(=O)N2Cc1ccc2occc2c1` [Example I-65, 4-(benzofuran-5-ylmethyl)-N-(1H-indol-3-yl)-3-oxo-3,4-dihydro-2H-benzo[b][1,4]thiazin-7-carboxamide], with 57 nM; and `O=C(Nc1ccc2c(c1)N(CC1CN(c3ccc4c(c3)OCO4)C1)C(=O)CS2)Nc1c[nH]c2ccccc12` [Example I-13, 1-(4-((1-(benzo[d][1,3]dioxolan-5-yl)azetidin-3-yl)methyl)-3-oxo-3,4-dihydro-2H-benzo[b][1,4]thiazin-6-yl)-3-(1H-indol-3-yl)urea], with 391 nM. As to `O=C(Nc1c[nH]c2ccc(Cl)cc12)c1cc2c(s1)SCC(=O)N2Cc1cc(F)cc(C(F)(F)F)c1` [Example I-123, N-(5-chloro-1H-indol-3-yl)-1-(3-fluoro-5-(trifluoromethyl)benzyl)-2-oxo-2,3-dihydro-1H-thieno[2,3-b][1,4]thiazin-6-carboxamide], the figures for the IC50 in test [2] and in test [3] were 5.71 nM and 69 nM, respectively. As for `CC1(C)C(=O)N(Cc2cc(F)cc(C(F)(F)F)c2)c2cc(C(=O)Nc3c[nH]c4ccc(F)cc34)ccc21` [Example I-110], the IC50 in test [2] was found to be 14.3 nM; in test [3] it was 36.8 nM. The corresponding values for `CCC1(C)C(=O)N(Cc2ccccc2)c2cc(C(=O)Nc3c[nH]c4ccccc34)ccc21` (stereo not drawn) [Example I-101] are 38.5 nM and 16.4 nM. On to `CC1(C)C(=O)N(Cc2cccc3ccoc23)c2cc(C(=O)Nc3c[nH]c4ccc(F)cc34)ccc21` [Example I-126, 1-(benzofuran-7-ylmethyl)-N-(5-fluoro-1H-indol-3-yl)-3,3-dimethyl-2-oxoindolin-6-carboxamide], for which the IC50 in test [2] and in test [3] was 58.5 nM throughout. Consider `CC1(C)C(=C=O)N(CCc2ccccc2)c2cc(C(=O)Nc3c[nH]c4ccc(F)cc34)ccc21` [Example I-107, N-(5-fluoro-1H-indol-3-yl)-3,3-dimethyl-2-carbonyl-1-phenethylindolin-6-carboxamide], for which the IC50 worked out at 2.72 nM in test [2] and 147 nM in test [3]. Regarding `O=C(Nc1c[nH]c2ccccc12)c1ccc2c(c1)N(Cc1cccs1)C(=O)CS2` [Example I-59, N-(1H-indol-3-yl)-3-oxo-4-(thien-2-ylmethyl)-3,4-dihydro-2H-benzo[b][1,4]thiazin-6-carboxamide], the IC50 in test [1] was 25 nM. For the molecule `CC1(C)C(=O)N(Cc2cc(F)cc(C(F)(F)F)c2)c2cc(C(=O)Nc3c[nH]c4cc(F)c(F)cc34)ccc21` [Example I-111], the results for the IC50 in test [2] and in test [3] were 29.1 nM and 123 nM, respectively.

For the molecule `O=C(Nc1c[nH]c2ccccc12)c1cc2c(s1)SCC(=O)N2Cc1ccsc1` [Example I-112, N-(1H-indol-3-yl)-2-oxo-1-(thien-3-ylmethyl)-2,3-dihydro-1H-thieno[2,3-b][1,4]thiazin-6-carboxamide], the IC50 came to 41.9 nM in test [2] and 46.5 nM in test [3]. On the same counts, the results for `O=C(Nc1c[nH]c2ccc(F)cc12)c1cc2c(s1)SCC(=O)N2Cc1ccco1` [Example I-121, N-(5-fluoro-1H-indol-3-yl)-1-(furan-2-ylmethyl)-2-oxo-2,3-dihydro-1H-thieno[2,3-b][1,4]thiazin-6-carboxamide] are 31.7 nM and 268 nM.

With `CC(c1ccccc1)N1C(=O)C(C)(C)c2ccc(C(=O)Nc3c[nH]c4ccccc34)cc21` (stereo not drawn) [Example I-100, N-(1H-indol-3-yl)-3,3-dimethyl-2-oxo-1-(1-phenethyl)indolin-6-carboxamide], the IC50 came out at 15.1 nM in test [2] and 59.6 nM in test [3]. The corresponding values for `CC1(C)C(=O)N(CCc2ccsc2)c2cc(C(=O)Nc3c[nH]c4ccccc34)ccc21` [Example I-108, N-(1H-indol-3-yl)-3,3-dimethyl-2-carbonyl-1-(2-(thien-3-yl)ethyl) indolin-6-carboxamide] are 1.74 nM and 71.4 nM. With `CC1(C)C(=O)N(Cc2ccsc2)c2cc(C(=O)Nc3c[nH]c4ccccc34)sc21` [Example I-85, N-(1H-indol-3-yl)-6,6-dimethyl-5-oxo-4-(thien-3-ylmethyl)-5,6-dihydro-4H-thieno[3,2-b]pyrrol-2-carboxamide], the IC50 worked out at 19.4 nM in test [2] and 16.5 nM in test [3]. The corresponding values for `CC1(C)C(=O)N(Cc2csc3ccccc23)c2cc(C(=O)Nc3c[nH]c4ccccc34)ccc21` [Example I-109, 1-(benzo[b]thien-3-ylmethyl)-N-(1H-indol-3-yl)-3,3-dimethyl-2-indolin-6-carboxamide] are 11.8 nM and 32.1 nM.

With `CC1(C)C(=O)N(Cc2ccccc2)c2cc(C(=O)Nc3c[nH]c4ccc(F)cc34)ccc21` [Example I-105], the IC50 in test [2] was determined as 3.38 nM; in test [3], 70.4 nM. On the same counts, the results for `CC1(C)C(=O)N(Cc2cc(F)cc(C(F)(F)F)c2)c2cc(C(=O)Nc3c[nH]c4ccccc34)ccc21` [Example I-104] are 8.69 nM and 33.1 nM. `O=C(Nc1c[nH]c2ccccc12)c1cc2c(s1)SCC(=O)N2Cc1cc(F)cc(C(F)(F)F)c1` [Example I-115, 1-(3-fluoro-5-(trifluoromethyl)benzyl)-N-(1H-indol-3-yl)-2-oxo-2,3-dihydro-1H-thieno[2,3-b][1,4]thiazin-6-carboxamide]: the figures for the IC50 in test [2] and in test [3] were 7.51 nM and 12.2 nM, respectively. The corresponding values for `O=C(Nc1c[nH]c2ccc(F)cc12)c1cc2c(s1)SCC(=O)N2Cc1ccoc1` [Example I-122, N-(5-fluoro-1H-indol-3-yl)-1-(furan-3-ylmethyl)-2-oxo-2,3-dihydro-1H-thieno[2,3-b][1,4]thiazin-6-carboxamide] are 15.9 nM and 272 nM. Turning to `CC1(C)C(=O)N(Cc2cccc3ccoc23)c2cc(C(=O)Nc3c[nH]c4ccccc34)ccc21` [Example I-97, 1-(benzofuran-7-ylmethyl)-N-(1H-indol-3-yl)-3,3-dimethyl-2-oxoindolin-6-carboxamide], the 50% inhibitory concentration (IC50) in test [2] amounted to 17.1 nM; in test [3] it was 3.3 nM. On the same counts, the results for `CCc1ccc(NC(=O)Nc2c[nH]c3ccccc23)cc1` [Example H151, H-151, reference compound] are 271 nM and 635 nM.
